# Results reported in doi:10.1101/374926v1 (bioRxiv, 2018).
# Experiments:
# [1] = In vitro FCS diffusion measurement; format: physicochemical; details: Milli-Q water
# [2] = test system: GR*-eGFP in Saos-2(GIGT) cells; experiment: Glucocorticoid-induced eGFP translocation; format: cell-based, human; details: 1 μM, 30 min
# [3] = test system: eGFP-hGal3 in Saos-2 cells; experiment: Galectin recruitment assay for endosomal damage; format: cell-based, human
# [4] = test system: eGFP-hGal8 in Saos-2 cells; experiment: Galectin recruitment assay for endosomal damage; format: cell-based, human; details: RNAiMAX 16 μL/mL or LLOMe 1 mM, 1 h
# [5] = test system: Saos-2 cells; experiment: FCS-based Lys9^R endosomal leakage assay; format: cell-based, human; details: for Lys9^R delivery efficiency (DE), cytosol / Lys9^R delivery efficiency (DE), nucleus: 60 min, FCS, n > 10 cells
# [6] = 2,500 cells per well in transfection medium
compound,measurement,setting,value
Ac-KKKKKKKKK-NH2 [Lys9^UL],Average τdiff in vitro at 25 °C,[1],0.064 ± 0.001 ms
same,Measured D at 25 °C,[1],206 ± 3 μm^2 s^-1
"C[C@@H]1C[C@H]2[C@@H]3CCC4=CC(=O)C=C[C@]4(C)[C@@]3(F)[C@@H](O)C[C@]2(C)[C@@]1(O)C(=O)CO [Dex, dexamethasone]",translocation ratio (TR),[2]; [6],3.4 ± 0.40
K^Dex–GPSQPTYPGDDAPVRDLIRFYRDLRRYLNVVTR HRY-CONH2 [1^Dex],translocation ratio (TR),[2]; [6],3.0 ± 0.40
same,mean translocation ratio (TR),"[2]; cells transfected with non-targeting siRNA, non-treated 1.2 ± 0.1",2.4 ± 0.3
same,translocation ratio (TR),[2]; complete media,around 2.0
same,translocation ratio (TR),[2]; transfection media,around 3.0
K^Dex-WYSCNVCGKAFVLSRHLNRHLRVHRRAT-CONH2 [2^Dex],translocation ratio (TR),[2]; [6],3.0 ± 0.090
same,translocation ratio (TR),[2]; complete media,around 2.0
same,translocation ratio (TR),[2]; transfection media,around 3.0
"COC(=O)[C@H](CC(C)C)NC(=O)[C@@H](N)CC(C)C [LLOMe, L-leucyl-L-leucine methyl ester]",vesicular staining compared to the total cell area,"[3]; LLOMe 1 mM, 1 hour, corresponds to ERC 400.0",4%
same,ERC value routinely obtained,"[3]; LLOMe 1 mM, 1 hour, untreated cells around 0.0",~400.0
same,"increase of average ERC over untreated cells, eGFP-hGal3","[3]; RNAiMAX 16 μL/mL or LLOMe 1 mM, 1 h",147 fold
same,"increase of average ERC over untreated cells, eGFP-hGal8",[4],68 fold
same,"Lys9^R delivery efficiency (DE), cytosol","[5]; LLOMe 0.125 mM, no agent: 3",3%
same,"Lys9^R delivery efficiency (DE), nucleus","[5]; LLOMe 0.125 mM, no agent: 4",6%
same,"Lys9^R delivery efficiency (DE), cytosol",[5]; LLOMe 0.25 mM,4%
same,"Lys9^R delivery efficiency (DE), nucleus",[5]; LLOMe 0.25 mM,12%
same,"Lys9^R delivery efficiency (DE), cytosol",[5]; LLOMe 0.5 mM,8%
same,"Lys9^R delivery efficiency (DE), nucleus",[5]; LLOMe 0.5 mM,12%
same,"Lys9^R delivery efficiency (DE), cytosol",[5]; LLOMe 1.0 mM,9%
same,"Lys9^R delivery efficiency (DE), nucleus",[5]; LLOMe 1.0 mM,12%
same,endosomal leakage of Lys9^R,"[5]; LLOMe titration up to 1 mM, 1 h",no detectable endosomal leakage
